In patent US20260083674A1, “OXAZOLIDINONE LIPOSOME COMPOSITIONS” (priority 2021, published 2026):
Values after ≈ are worked out from the molar mass of the structure shown. Where two headings read alike, the source gives them in different places.

Tested on: M. tuberculosis MDR strains M70, M28, M94, M14, TN5904 and H37Rv
Assay: microbe, parasite or virus in culture
Assay type: cell-based, Mycobacterium tuberculosis
Settings: for MIC: Mycobacterium tuberculosis, H37RV; for MIC, μg/mL in M. tuberculosis strain: M14: MDR strain M14, MABA assay; for MIC, μg/mL in M. tuberculosis strain: M28: MDR strain M28, MABA assay; for MIC, μg/mL in M. tuberculosis strain: M70: MDR strain M70, MABA assay; for MIC, μg/mL in M. tuberculosis strain: M94: MDR strain M94, MABA assay; for MIC, μg/mL in M. tuberculosis strain: TN5904: MDR strain TN5904, MABA assay; for MIC, μg/mL in M. tuberculosis strain: H37Rv: drug-susceptible strain H37Rv, MABA assay
[1] = read-out: MIC, μg/mL in M. tuberculosis strain: M28
[2] = read-out: MIC, μg/mL in M. tuberculosis strain: M94

Compound | MIC [1] | MIC [2] | MIC (read-out: MIC, μg/mL in M. tuberculosis strain: TN5904) | MIC, μg/mL in M. tuberculosis strain: M14 | MIC, μg/mL in M. tuberculosis strain: M28 | MIC, μg/mL in M. tuberculosis strain: M70 | MIC, μg/mL in M. tuberculosis strain: M94 | MIC, μg/mL in M. tuberculosis strain: TN5904 | MIC, μg/mL in M. tuberculosis strain: H37Rv
Cn1nnc(-c2ccc(-c3ccc(N4C[C@H](CN)OC4=O)cc3F)cn2)n1 [AKG-3] | 0.06 µg/mL (≈ 0.162 µM) | 0.06 µg/mL (≈ 0.162 µM) | – | – | – | – | – | – | –
Cl.Cl.NCCn1nnc(-c2ccc(-c3ccc(N4C[C@H](CN)OC4=O)cc3F)cn2)n1 [AKG-29] | 0.125 µg/mL | 0.125 µg/mL | – | – | – | – | – | – | –
CC(=O)NC[C@H]1CN(c2ccc(-c3ccc(-c4nnn(CCN(C)C)n4)nc3)c(F)c2)C(=O)O1 [AKG-38] | – | – | 0.03 µg/mL (≈ 0.064 µM) | – | – | – | – | – | –
NNC(=O)c1ccncc1 [INH] | – | – | – | >2 µg/mL | >2 µg/mL | >2 µg/mL | >2 µg/mL | 2 µg/mL (≈ 14.6 µM) | 0.06 µg/mL (≈ 0.438 µM)
COc1c(N2C[C@@H]3CCCN[C@@H]3C2)c(F)cc2c(=O)c(C(=O)O)cn(C3CC3)c12 [MOX] | – | 0.125 µg/mL (≈ 0.311 µM) | – | – | – | – | – | – | –
CO[C@H]1/C=C/O[C@@]2(C)Oc3c(C)c(O)c4c(O)c(c(/C=N/N5CCN(C)CC5)c(O)c4c3C2=O)NC(=O)/C(C)=C\C=C\[C@H](C)[C@H](O)[C@@H](C)[C@@H](O)[C@@H](C)[C@H](OC(C)=O)[C@@H]1C [RIF] | – | – | – | 0.06 µg/mL (≈ 0.0729 µM) | >8 µg/mL | >8 µg/mL | – | >8 µg/mL | 0.06 µg/mL (≈ 0.0729 µM)
CN[C@@H]1[C@H](O[C@H]2[C@H](O[C@H]3[C@H](O)[C@@H](O)[C@H](N=C(N)N)[C@@H](O)[C@@H]3N=C(N)N)O[C@@H](C)[C@]2(O)C=O)O[C@@H](CO)[C@H](O)[C@H]1O [STR] | – | – | – | >8 µg/mL | 0.125 µg/mL (≈ 0.215 µM) | 2 µg/mL (≈ 3.44 µM) | >8 µg/mL | 1 µg/mL (≈ 1.72 µM) | 0.5 µg/mL (≈ 0.86 µM)
